From patent US20220395495A1 (priority 2019, published 2022)

What was measured:
[1] = tested on: Mtb H37Rv; assay: Mouse chronic infection model of tuberculosis, lung bacterial CFU, Inh or Rif with or without CQ; assay type: in vivo, BALB/c mice; settings: mice, 10 mg/kg chloroquine added to first line TB drug (FIGS. 1B, 1C)
[2] = Plasma concentrations and exposures of CQ by intraperitoneal or oral route; settings: in vivo
[3] = tested on: Mtb within macrophages; assay: Drug tolerance and killing of Mtb within macrophages; assay type: cell-based; settings: by deacidification
[4] = tested on: TB; assay: Direct in vitro activity on TB
[5] = tested on: Mtb H37Rv; assay: Guinea pig infection model of tuberculosis, lung bacterial burden, Inh with or without CQ; assay type: in vivo, Outbred Hartley guinea pigs; settings: Guinea pigs (FIG. 1F)
[6] = tested on: Mtb H37Rv; assay: Dexamethasone-induced reactivation (relapse) of Mtb in the lungs of chronically infected BALB/c mice after treatment; assay type: in vivo

| SMILES | Bacterial killing and efficacy on addition of chloroquine to Isoniazid (H) or Rifampicin (R) [1] | Plasma concentrations and exposures, intraperitoneal versus oral route [2] | Effect on phenotypic drug tolerance and killing of Mtb within macrophages [3] | Direct in vitro activity on TB [4] | Bacterial killing and efficacy on addition of chloroquine to Isoniazid [5] | Average log10CFU per lung ([6]; reactivated Mtb in lungs after dexamethasone immunosuppression, 22nd week p.i., average over relapsed animals) | Percentage relapse ([6]; treatment stopped at 12 weeks p.i., 8 weeks without treatment, then dexamethasone 10 mg/kg i.p. x4 over 2 weeks, lungs at 22nd week p.i., n=5) |
| --- | --- | --- | --- | --- | --- | --- | --- |
| CCN(CC)CCCC(C)Nc1ccnc2cc(Cl)ccc12 (stereo not shown) [Chloroquine] | enhanced bacterial killing and efficacy | nearly equivalent plasma concentrations and exposures | counteracts phenotypic drug tolerance and accelerates killing of Mtb within macrophages | no or limited direct in vitro activity on TB | enhanced bacterial killing and efficacy |  |  |
| NNC(=O)c1ccncc1 [Inh alone, Isoniazid] |  |  |  |  |  | 4.2 (n = 5) log10CFU per lung | 100% (5/5) |
